Laboratory results taken from patent publication US12285392B2, “Method for modulating metabolism” (Brightseed, Inc., priority 2018, dated 2025).

Key:
HNF4α = molecular target: T1, HNF4α (Homo sapiens, UniProt P41235); experiment: Insulin promoter activity assay in T6PNE cells (HNF4α activity); format: cell-based
T1 construct: endogenous in cells; host or cells: T6PNE cells
T1 sequence (P41235 1-474): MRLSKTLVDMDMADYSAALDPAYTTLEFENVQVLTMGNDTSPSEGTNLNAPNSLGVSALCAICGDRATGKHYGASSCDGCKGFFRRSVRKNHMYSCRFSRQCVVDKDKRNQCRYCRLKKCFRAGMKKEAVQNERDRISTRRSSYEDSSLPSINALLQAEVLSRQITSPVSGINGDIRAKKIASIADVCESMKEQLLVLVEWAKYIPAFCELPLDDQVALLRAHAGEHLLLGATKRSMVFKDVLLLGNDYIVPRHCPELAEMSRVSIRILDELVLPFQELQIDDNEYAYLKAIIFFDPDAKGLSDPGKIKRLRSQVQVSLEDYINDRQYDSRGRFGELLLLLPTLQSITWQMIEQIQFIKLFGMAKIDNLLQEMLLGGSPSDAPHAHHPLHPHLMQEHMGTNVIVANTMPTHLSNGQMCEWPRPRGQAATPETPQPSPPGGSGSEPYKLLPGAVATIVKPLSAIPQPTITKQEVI
Protocol: Insulin Promoter Activity. T6PNE cells (Kiselyuk, et al. (2012) Chem Biol. 19(7):806-818; Kiselyuk, et al. (2010) J. Biomol. Screen 15(6):663-70) are seeded at 2000 cells per well in 384-well tissue culture plates in the presence of 1 μM tamoxifen and 0.03 mM palmitate. After a 24-hour incubation, a compound or extract of the invention is added to the cells. Forty-eight hours after compound or extract addition, cells are fixed in 4% paraformaldehyde and stained with DAPI. Blue (DAPI) and green (human insulin promoter driving GFP) channels are imaged.
Inhibition of HNF4α GFP Expression. Using the insulin promoter assay described herein, activity of HNF4α was assessed in the presence of BI-6015 (0, 2.5, 5 μM), a known antagonist of HNF4α (Kiselyuk, et al. (2012) Chem. Biol. 19(7):806-818), in combination with N-trans-caffeoyltyramine (0, 5, 10, 20 μM).
Given the role of HNF4α in maintaining a heal thy metabolism in humans, test compounds were screened for activity as HNF4α agonists (either direct or indirect effects). Using a known insulin promoter-reporter assay, Kiselyuk and colleagues (2010. J. Biomol. Screen 15(6):663-70), screened a library of compounds for activity to promote insulin activation. […] The OTC promoter is known to be responsive to HNF4α in transient transfection assays (Inoue, et al. (2002) J. Biol. Chem. 277:25257-65).

HNF4α mRNA = HNF4α mRNA levels by quantitative PCR; format: cell-based; details: FIG. 3
Protocol: Expression of Insulin and HNF4α. RNA was purified using a RNEASY® chromatographic separation and isolation kits (Qiagen), and converted to cDNA using the gScript™ cDNA SuperMix (Quanta Biosciences). Q-PCR was conducted with cDNA corresponding to 2 μg of RNA using an Opticon Real-Time System (MJ Research) and QPCR SuperMix (BioPioneer). See All mRNA values were normalized to 18S rRNA values and are expressed as fold changes over vehicle-treated control.

estrogenic activity = experiment: Counter-screen for estrogenic activity (E47MER luciferase reporter in HeLa cells); format: cell-based, human; details: FIG. 5
Protocol: Counter-Screen for Estrogenic Activity. Estrogenic activity was monitored by co-transfection of a reporter plasmid containing a multimerized E-box 5′ of a minimal promoter fused to the Firefly luciferase gene (4RTK-luc) with wild-type E47 or E47MER (Kiselyuk, et al. (2010) J. Biomol. Screen 15(6):663-70). HeLa cells were transfected using polyethylenimine, 0.2 μg 4RTK-Luc plasmid and either 0.3 μg of human E47, E47MER or pMSCVhph vector in 50 μl of serum-free Dulbecco's modification of Eagle medium per well. Transfections included Renilla luciferase (pRL-TK) plasmid as a control for transfection efficacy. Transfection conditions were as described in the PPRE-Luc reporter assay of Kiselyuk, et al. ((2010) J. Biomol. Screen 15(6):663-70). Sixteen hours after transfection, culture media were changed and maintained for 48 hours with tamoxifen and/or compound or vehicle (DMSO). Cells were then lysed and assayed for luciferase activity using the Promega DUAL-LUCIFERASE® reporter assay kit (Promega Corp., Madison, WI), and luminescence was measured using the Veritas™ Microplate Luminometer (Turner Biosystems, Sunnyvale, CA). Data were normalized to Renilla luciferase (pRL-TK) and expressed as fold-change over vehicle alone.

[1] = Hepatic microsome stability assay, mouse; format: in vitro ADME; details: mouse microsomes
Protocol: (§1) Hepatic Microsome Assay. Hepatic microsomes stability assays were performed in accordance with known methods (Peddibhotla, et al. (2013) ACS Med. Chem. Lett. 4:846-851). Briefly, 3 μL of 25 μM compound solution in acetonitrile were incubated with 123 μL of mouse, human or rat liver microsomes (Xenotech, Kansas City, Kans.). […] The microsomal concentrations used were 1.0 mg/mL. Compounds were incubated in microsomes for 0, 5, 15, 30 and 60 minutes. The reactions were stopped by the addition of ice cold ACN and the reaction mixtures were centrifuged at 10,000 g for 10 minutes before the supernatant was removed for analysis. A 10 μL portion of the resulting extract was injected on a Thermo HPLC system equipped with PAL CTC plate sampler (96-well plate), Dionex Ultimate 3000 binary pump (flow rate at 0.600 mL/min), Dionex Ultimate 3000 thermostatted column compartment (temperature at 40° C.), Thermo Endura Mass Spectrometer (ESI source), using a Thermo Scientific Accucore C18 (2.6 μM, 2.1×50 mm) column. A gradient was run starting at 95% H2O (0.1% formic acid) and 5% ACN (0.1% formic acid) during the first 0.5 min, then under gradient condition of 5-100% ACN (0.1% formic acid) from minute 0.5 to 3.5, finishing at 95% H2O (0.1% formic acid) and 5% ACN (0.1% formic acid) over 0.5 min, with another 1 min at 95:5 to re-equilibrate.

[2] = Hepatic microsome stability assay, rat; format: in vitro ADME; details: rat microsomes
Protocol: as §1

Question: Which results are given for `O=C(/C=C/c1ccc(O)c(O)c1)NCCc1ccc(O)cc1` [N-trans-caffeoyltyramine]?
Answer: Potency in activating HNF4α relative to Alverine (HNF4α; FIG. 1, insulin promoter activity dose-response): roughly an order-of-magnitude more potent than Alverine; HNF4α modulation in screening (HNF4α; screening in the HNF4α assay): able to act as HNF4α modulators; HNF4α gene expression (HNF4α mRNA): upregulated; Estrogenic activity (estrogenic activity): did not exhibit estrogenic activity; % Remaining ([1]; 1 μM): 0.4%; % Remaining ([1]; 10 μM): 0.3%; % Remaining ([2]; 1 μM): 0.6%; % Remaining ([2]; 10 μM): 33.6%
